Assay results as given in PubChem BioAssay AID2821 (Broad Institute, 2010).
Active and inactive are the calls of the source.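 How the source made its calls: active means IC50 no more than a set number of log units above the top dose tested; inconclusive means flat fit with 30 to 70% inhibition, or a poor fit; inactive means IC50 beyond that set limit.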

Target: Serine/threonine-protein kinase 33 (Homo sapiens) (UniProt Q9BYT3)
Assay: inhibition of STK33 phosphorylation of MBP – biochemical, luminescence, cell-free, retest, dose response (AID 2821)
Conditions: purified STK33, MBP substrate, ADP-Glo luminescence

Sequence of Serine/threonine-protein kinase 33 (Homo sapiens) (Q9BYT3 whole entry, looked up): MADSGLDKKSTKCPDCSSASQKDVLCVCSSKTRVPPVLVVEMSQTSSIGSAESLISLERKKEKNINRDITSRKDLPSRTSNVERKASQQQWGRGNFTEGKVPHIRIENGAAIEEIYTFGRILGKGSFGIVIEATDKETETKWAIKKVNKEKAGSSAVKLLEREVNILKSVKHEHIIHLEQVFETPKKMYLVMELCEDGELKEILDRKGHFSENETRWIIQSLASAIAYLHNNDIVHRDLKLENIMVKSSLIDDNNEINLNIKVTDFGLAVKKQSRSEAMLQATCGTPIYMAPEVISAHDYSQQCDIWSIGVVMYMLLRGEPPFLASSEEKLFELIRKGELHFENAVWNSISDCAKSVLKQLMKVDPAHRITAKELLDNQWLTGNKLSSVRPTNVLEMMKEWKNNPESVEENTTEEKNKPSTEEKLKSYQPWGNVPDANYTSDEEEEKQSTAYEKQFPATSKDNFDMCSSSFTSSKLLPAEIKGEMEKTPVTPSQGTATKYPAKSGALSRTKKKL

SMILES	IC50
COc1cc(C2c3sc(=O)[nH]c3SC3C(=O)N(c4ccc(C)cc4)C(=O)C32)ccc1O (stereo not given)	> 12 µM (inactive)
Oc1[nH]c2ccccc2c1C=Nc1ccc2c(c1)OCO2	11.3 µM
COc1ccc(N=Cc2c(O)[nH]c3ccccc23)cc1OC	5.22 µM
O=C1C(c2ccncc2)=C(O)c2ccccc21	10.3 µM
COC(=O)c1cccc2c1-c1ccccc1/C2=N/O	11.8 µM
O=c1c(/C=N/O)c(Nc2ccccc2)nc2ccccn12	6.22 µM
N#C/C(=C(/O)c1ccco1)c1nc2ccccc2[nH]1	8.49 µM
Oc1ccc(/C=C/c2ccnc3ccccc23)cc1	11.5 µM
CCn1c2ccc(/C(C)=N\O)cc2c2cc(/C(C)=N\O)ccc21	> 12 µM (inactive)

Now from value to compound:

IC50	SMILES
1.75 µM	COc1cc(/C=C/C(O)=C/C(=O)/C=C/c2ccc(O)cc2)ccc1O
0.71 µM	COc1cc(/C=C/C(=O)/C=C(O)/C=C/c2ccc(O)c(OC)c2)ccc1O
3.05 µM	Oc1ccc(/C=N/Nc2ccnc3cc(Cl)ccc23)cc1O
2.48 µM	CCCn1c2ccc(/C(C)=N\O)cc2c2cc(/C(C)=N/O)ccc21
4.93 µM	COc1cc(N=Cc2c(O)[nH]c3ccccc23)cc(OC)c1OC
4.91 µM	NS(=O)(=O)c1ccc2c(c1)C(=NO)c1cc(S(N)(=O)=O)ccc1-2
